Laboratory results published in article PMC12144414 (iScience, 2025).
Peptide text beside a SMILES is read from it.

Tests used:
[1] = Stability in mouse blood serum; format: in vitro ADME; settings: prediction: endopeptidase cleavage upon peripheral injection; not tested
Human recombinant GAPDH = Human recombinant GAPDH (Homo sapiens, UniProt P04406); experiment: GAI peptide inhibition of GAPDH aggregation; format: biochemical; settings: read-out: Potency: Aggregation inhibitory activity (%); SD
[2] = Regional cerebral blood flow; format: in vivo, mouse; settings: 60 nmol GAI-17, during ischemia-reperfusion; n = 4
[3] = Physiological parameters during ischemia/reperfusion; format: in vivo, mouse; settings: 60 nmol GAI-17, during ischemia-reperfusion
[4] = Levels of pyruvate in the brain; format: in vivo, mouse; settings: GAI-17 treatment; data not shown
[5] = system: mouse model of AIS induced by transient MCAO; settings: in vivo
mouse GAPDH = mouse GAPDH (Mus musculus, UniProt P16858); experiment: In vitro GAPDH aggregation assay with C152A-GAPDH; format: biochemical; settings: mouse GAPDH 0.3 mg/ml + C152A-GAPDH 0-0.75 mg/ml, 37°C 24 h, A405; n = 3
mouse GAPDH, sequence (P16858 whole entry): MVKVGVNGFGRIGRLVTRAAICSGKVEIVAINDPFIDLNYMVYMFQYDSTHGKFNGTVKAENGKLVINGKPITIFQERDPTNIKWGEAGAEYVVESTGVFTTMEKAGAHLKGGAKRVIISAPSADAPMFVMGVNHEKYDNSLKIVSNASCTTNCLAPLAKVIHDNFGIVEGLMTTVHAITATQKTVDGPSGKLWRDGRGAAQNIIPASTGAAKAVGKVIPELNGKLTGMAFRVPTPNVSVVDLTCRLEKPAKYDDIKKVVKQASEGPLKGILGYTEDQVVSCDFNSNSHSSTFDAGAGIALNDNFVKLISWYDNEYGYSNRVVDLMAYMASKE

Human recombinant GAPDH, sequence (P04406 whole entry, the tested form may be a part): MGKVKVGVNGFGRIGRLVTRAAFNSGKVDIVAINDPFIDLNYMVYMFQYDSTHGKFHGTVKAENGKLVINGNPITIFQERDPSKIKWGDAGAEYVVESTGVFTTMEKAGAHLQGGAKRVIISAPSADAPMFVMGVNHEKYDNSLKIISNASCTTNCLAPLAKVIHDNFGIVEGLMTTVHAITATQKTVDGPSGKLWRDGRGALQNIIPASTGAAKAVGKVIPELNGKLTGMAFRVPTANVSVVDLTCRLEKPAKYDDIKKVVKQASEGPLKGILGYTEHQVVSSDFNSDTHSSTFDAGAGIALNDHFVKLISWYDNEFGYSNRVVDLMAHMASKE

C[C@@H](O)[C@H](NC(=O)[C@H](CS)NC(=O)[C@@H](N)CO)C(=O)O [GAI-17] (H-Ser-Cys-Thr-OH)
Stability in mouse blood serum [1]: predicted to be unstable | inhibition (Human recombinant GAPDH): 97.2 ± 1.88% | Cerebral blood flow [2]: no changes | Physiological parameters (MBP, HR, blood PaO2, PaCO2, pH, RT) [3]: no changes | Levels of pyruvate in the brain [4]: did not affect

C#CCN(C)[C@H](C)Cc1ccccc1 [deprenyl]
Development of brain infarction caused by MCAO (infarct volume in whole brain) [5]: no significant effect

human GAPDH-C152A: His-tagged recombinant human GAPDH mutant with Cys-152 substituted to alanine, dominant-negative for aggregation
Inhibitory effect on mouse GAPDH aggregation in vitro (mouse GAPDH): confirmed in vitro
